Patent publication US20110028686A1, “Protein binding miniature proteins” (Yale University, priority 2000, published 2011)
Where “and” joins values, the source holds several entries; their conditions need not be identical. Identical values can stand only once. Like-named read-outs stand apart in the source and are kept apart here. Ends that are not written are not given here. Peptide text beside a SMILES is read from it.

What was measured:
[1] = target: T1, CBP KIX K606A (Mus musculus, UniProt P45481, K606A); experiment: Equilibrium fluorescence polarization, CBP KIX variant K606A; assay type: binding; details: 25° C.
T1 construct: made in house; host or cells: E. coli BL21(DE3) pArg

[2] = target: T2, Calmodulin (Homo sapiens, UniProt P0DP23); experiment: Fluorescence polarization specificity, calmodulin; assay type: binding; details: calmodulin as target protein; read-out: Kd CalM
T2 construct: purchased Sigma
From the text: (§1) Given the myriad protein surfaces present in the cell, the utility of molecules that recognize protein surfaces will depend on their ability to interact selectively with the desired protein.

[3] = target: T3, CBP KIX E655A (Mus musculus, UniProt P45481, E655A); experiment: Equilibrium fluorescence polarization, CBP KIX variant E655A; assay type: binding; details: 25° C.
T3 construct: made in house; host or cells: E. coli BL21(DE3) pArg

[4] = target: T4, Carbonic anhydrase II (Homo sapiens, UniProt P00918); experiment: Fluorescence polarization specificity, carbonic anhydrase II; assay type: binding; details: carbonic anhydrase II as target protein; read-out: Kd CA
T4 construct: purchased Sigma
From the text: as §1

[5] = target: T5, CBP KIX Y658A (Mus musculus, UniProt P45481, Y658A); experiment: Equilibrium fluorescence polarization, CBP KIX variant Y658A; assay type: binding; details: 25° C.
T5 construct: made in house; host or cells: E. coli BL21(DE3) pArg

[6] = target: T6, HisKIX (His-tagged CBP KIX domain) (Mus musculus, UniProt P45481); experiment: Equilibrium fluorescence polarization, HisKIX binding; details: 25° C.
T6 construct: The CBP KIX-coding region (residues 586 to 672) of pGEX-KT KIX 10-672; made in house; host or cells: E. coli BL21(DE3) pArg

[7] = target: T7, CBP KIX wild type (Mus musculus, UniProt P45481); experiment: Equilibrium fluorescence polarization, wild type CBP KIX; assay type: binding; details: 25° C.
T7 construct: made in house; host or cells: E. coli BL21(DE3) pArg

[8] = target: T8, CBP KIX LL652-3AA (Mus musculus, UniProt P45481, L652A/L653A); experiment: Equilibrium fluorescence polarization, CBP KIX variant LL652-3AA; assay type: binding; details: 25° C.
T8 construct: made in house; host or cells: E. coli BL21(DE3) pArg

[9] = target: T9, CBP KIX Q661A (Mus musculus, UniProt P45481, Q661A); experiment: Equilibrium fluorescence polarization, CBP KIX variant Q661A; assay type: binding; details: 25° C.
T9 construct: made in house; host or cells: E. coli BL21(DE3) pArg

[10] = target: T10, CBP KIX Y650A (Mus musculus, UniProt P45481, Y650A); experiment: Equilibrium fluorescence polarization, CBP KIX variant Y650A; assay type: binding; details: 25° C.
T10 construct: made in house; host or cells: E. coli BL21(DE3) pArg

[11] = target: T11, CBP KIX I660A (Mus musculus, UniProt P45481, I660A); experiment: Equilibrium fluorescence polarization, CBP KIX variant I660A; assay type: binding; details: 25° C.
T11 construct: made in house; host or cells: E. coli BL21(DE3) pArg

[12] = target: T12, CBP KIX K662A (Mus musculus, UniProt P45481, K662A); experiment: Equilibrium fluorescence polarization, CBP KIX variant K662A; assay type: binding; details: 25° C.
T12 construct: made in house; host or cells: E. coli BL21(DE3) pArg

[13] = target: T13, CBP KIX L603A (Mus musculus, UniProt P45481, L603A); experiment: Equilibrium fluorescence polarization, CBP KIX variant L603A; assay type: binding; details: 25° C.
T13 construct: made in house; host or cells: E. coli BL21(DE3) pArg

[14] = target: T14, CBP KIX Y658F (Mus musculus, UniProt P45481, Y658F); experiment: Equilibrium fluorescence polarization, CBP KIX variant Y658F; assay type: binding; details: 25° C.
T14 construct: made in house; host or cells: E. coli BL21(DE3) pArg

[15] = target: T15, CBP KIX I657A (Mus musculus, UniProt P45481, I657A); experiment: Equilibrium fluorescence polarization, CBP KIX variant I657A; assay type: binding; details: 25° C.
T15 construct: made in house; host or cells: E. coli BL21(DE3) pArg

[16] = target: T2, Calmodulin; experiment: Calmodulin binding by fluorescence emission
[17] = target: Bcl-2 (Homo sapiens, UniProt P10415); experiment: Bcl-2 binding by fluorescence emission of fluorescein-labeled peptide; details: read-out: Kd for binding to Bcl-2, 4° C., PBS
[18] = Circular dichroism thermal denaturation; assay type: physicochemical; details: far UV circular dichroism at 222 nm
Protocol: Spectra were acquired in 0.5×PBS at 25° C. using a Aviv Model 62DS spectrometer. […] Each data set represents the average of 10 scans. Spectra were background corrected but were not smoothed. (b) Temperature dependence of the CD spectrum of pP53-05. ΘMRE is in units of deg·cm^2·dmol^−1.
Circular dichroism spectra were recorded in PBS on an Aviv 202 CD Spectrometer and were background corrected but not smoothed. Wavelength scans were performed at 4° C. between 200 and 260 nm at 1 nm intervals with a recording time of five seconds at each interval. Bak (72-94), 4099, 4100, 4101, 4102 were used at concentrations of 0.028 mM, 0.0069 mM, 0.0119 mM, 0.014 mM and 0.016 mM respectively. Thermal denaturation curves were measured at 222 nm between 4-98° C. with 2° C. steps and one minute equilibration at each temperature. Peptides were used at the highest concentrations used for the wavelength scans described above. Mean residue elliptcity and percent helicity were calculated from the value at 222 nm after background correction.

[19] = target: T4, Carbonic anhydrase II; experiment: Carbonic anhydrase II binding by fluorescence emission; details: PBS
[20] = target: protein kinase A (Homo sapiens, UniProt P17612); experiment: Fluorescence polarization specificity, protein kinase A; assay type: binding
Protocol: (§2) FIG. 3—Fluorescence polarization analysis of the affinity of GST-MDM2 for selected peptides and the affinity of pP53-05 for selected proteins. […] Each point represents the average of at least three trials. Error bars represent the standard error. Kd values were calculated as described in Heyduk, et al., Proc Natl Acad Sci USA 1990, 87, 1744. […] Plot illustrates the fraction of p53AD-Flu (10 nM) bound to GST-MDM2 (400 nM) at equilibrium as a function of added pP53-05 (4.5 μM-0.18 μM). Ki was calculated using the Cheng-Prusoff equation.
(§3) The specificity of pP53-05 was evaluated by measuring its affinity for several receptors and enzymes that bind helical or hydrophobic peptides or small molecules (FIG. 3).

[21] = target: T16, GST-MDM2 (Homo sapiens, UniProt Q00987); experiment: Competition fluorescence polarization, p53AD-Flu bound to GST-MDM2; assay type: binding; details: p53AD-Flu 10 nM, GST-MDM2 400 nM; Cheng-Prusoff
Protocol: (§4) Each point represents the average of at least three trials. Error bars represent the standard error. Kd values were calculated as described in Heyduk, et al., Proc Natl Acad Sci USA 1990, 87, 1744. […] Ki was calculated using the Cheng-Prusoff equation.

[22] = target: T2, Calmodulin; experiment: Fluorescence polarization specificity, calmodulin; assay type: binding
Protocol: as §2, §3

[23] = tested on: GST-MDM2; experiment: Fluorescence polarization, affinity for GST-MDM2; assay type: binding, human; details: calmodulin, Fos, carbonic anhydrase, protein kinase A vs GST-MDM2
Protocol: (§5) Residues in yellow and blue stabilize the aPP hydrophobic core; those in red contribute to the binding of MDM2.
as §4

[24] = target: T16, GST-MDM2; experiment: Fluorescence polarization, affinity for GST-MDM2; assay type: binding; details: fluorescein-labeled peptide; read-out: equilibrium dissociation constant (Kd) of the peptide·GST-MDM2 complex
Protocol: as §5, §4

[25] = target: carbonic anhydrase; experiment: Fluorescence polarization specificity, carbonic anhydrase; assay type: binding
Protocol: as §2, §3

[26] = target: T17, bZIP region of Fos (Homo sapiens, UniProt P01100); experiment: Fluorescence polarization specificity, Fos; assay type: binding
T17 construct: the bZIP region of Fos, which forms dimeric complexes with other bZIP proteins
Protocol: as §2, §3

[27] = target: KIX; details: various techniques; isothermal titration calorimetry for KID(129-149)^P; read-out: previously reported Kd of KID^P·KIX complexes; cited from earlier work
Chain of KIX (Q92793 587-673 limits assumed): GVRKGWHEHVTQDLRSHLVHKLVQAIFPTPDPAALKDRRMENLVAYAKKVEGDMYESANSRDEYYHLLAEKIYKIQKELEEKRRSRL

T5 sequence (P45481 586-665 Y658A limits assumed): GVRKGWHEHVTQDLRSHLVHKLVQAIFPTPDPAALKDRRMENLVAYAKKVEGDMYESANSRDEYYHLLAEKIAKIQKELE
T16 sequence (Q00987 whole entry): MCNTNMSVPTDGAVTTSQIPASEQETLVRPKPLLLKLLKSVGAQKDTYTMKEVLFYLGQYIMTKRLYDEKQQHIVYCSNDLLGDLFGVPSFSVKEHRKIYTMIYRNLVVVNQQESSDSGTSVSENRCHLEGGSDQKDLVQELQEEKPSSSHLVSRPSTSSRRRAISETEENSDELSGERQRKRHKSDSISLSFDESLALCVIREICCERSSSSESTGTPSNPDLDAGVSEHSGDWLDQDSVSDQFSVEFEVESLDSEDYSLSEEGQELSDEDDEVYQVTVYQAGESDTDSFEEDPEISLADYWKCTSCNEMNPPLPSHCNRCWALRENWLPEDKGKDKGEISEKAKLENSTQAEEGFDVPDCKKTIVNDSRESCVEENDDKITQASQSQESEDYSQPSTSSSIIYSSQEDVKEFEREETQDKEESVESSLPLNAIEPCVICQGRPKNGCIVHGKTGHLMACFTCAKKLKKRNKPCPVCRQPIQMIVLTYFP
T6 sequence (P45481 586-672): as the sequence (Q92793 587-673 limits assumed) above
T14 sequence (P45481 586-665 Y658F limits assumed): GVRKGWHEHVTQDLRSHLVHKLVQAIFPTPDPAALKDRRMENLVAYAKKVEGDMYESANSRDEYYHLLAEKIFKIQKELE
T12 sequence (P45481 586-665 K662A limits assumed): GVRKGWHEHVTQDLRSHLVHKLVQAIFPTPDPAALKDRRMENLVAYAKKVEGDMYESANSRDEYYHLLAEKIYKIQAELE
T15 sequence (P45481 586-665 I657A limits assumed): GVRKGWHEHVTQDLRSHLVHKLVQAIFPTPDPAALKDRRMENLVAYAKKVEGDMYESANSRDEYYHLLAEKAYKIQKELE
T8 sequence (P45481 586-665 L652A/L653A): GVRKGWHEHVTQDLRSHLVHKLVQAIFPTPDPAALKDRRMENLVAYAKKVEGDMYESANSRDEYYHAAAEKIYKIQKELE
T9 sequence (P45481 586-665 Q661A limits assumed): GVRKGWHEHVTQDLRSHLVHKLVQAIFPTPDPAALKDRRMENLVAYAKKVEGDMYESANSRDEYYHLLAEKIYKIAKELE
T13 sequence (P45481 586-665 L603A limits assumed): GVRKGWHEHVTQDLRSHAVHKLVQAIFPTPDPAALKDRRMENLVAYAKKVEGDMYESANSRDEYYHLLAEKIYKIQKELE
Chain of Bcl-2 (P10415 1-205): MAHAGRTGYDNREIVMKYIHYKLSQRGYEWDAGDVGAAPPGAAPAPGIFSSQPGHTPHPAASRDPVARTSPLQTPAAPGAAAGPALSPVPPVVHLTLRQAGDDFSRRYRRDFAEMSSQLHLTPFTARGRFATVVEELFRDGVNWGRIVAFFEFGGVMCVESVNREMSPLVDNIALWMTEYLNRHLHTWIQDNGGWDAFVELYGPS
T3 sequence (P45481 586-665 E655A limits assumed): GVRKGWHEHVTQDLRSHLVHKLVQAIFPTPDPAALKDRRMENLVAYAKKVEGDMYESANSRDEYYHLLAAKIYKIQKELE
T1 sequence (P45481 586-665 K606A limits assumed): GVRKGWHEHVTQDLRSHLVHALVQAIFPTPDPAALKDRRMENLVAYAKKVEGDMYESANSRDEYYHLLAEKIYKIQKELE
T7 sequence (P45481 586-665 limits assumed): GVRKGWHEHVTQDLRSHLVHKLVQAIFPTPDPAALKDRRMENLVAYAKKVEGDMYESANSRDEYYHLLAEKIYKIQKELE
T10 sequence (P45481 586-665 Y650A limits assumed): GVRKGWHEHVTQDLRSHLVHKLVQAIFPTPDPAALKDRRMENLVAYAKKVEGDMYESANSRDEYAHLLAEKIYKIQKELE
T17 sequence (P01100 137-200 limits assumed): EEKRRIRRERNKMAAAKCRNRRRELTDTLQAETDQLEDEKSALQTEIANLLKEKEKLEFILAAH
T11 sequence (P45481 586-665 I660A limits assumed): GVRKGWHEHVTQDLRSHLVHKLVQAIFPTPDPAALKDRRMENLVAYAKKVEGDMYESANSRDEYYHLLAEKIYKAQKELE

CC[C@H](C)[C@H](NC(=O)[C@H](Cc1ccc(O)cc1)NC(=O)[C@H](Cc1ccccc1)NC(=O)[C@H](Cc1ccccc1)NC(=O)[C@H](COP(=O)(O)O)NC(=O)[C@H](CC(C)C)NC(=O)[C@H](CCCNC(=N)N)NC(=O)[C@H](CCCNC(=N)N)NC(=O)[C@@H](NC(=O)[C@@H]1CCCN1C(=O)[C@H](C)NC(=O)[C@H](CC(=O)O)NC(=O)[C@H](CC(=O)O)NC(=O)CNC(=O)[C@@H]1CCCN1C(=O)[C@H](Cc1ccc(O)cc1)NC(=O)[C@@H](NC(=O)[C@@H]1CCCN1C(=O)[C@H](CCC(N)=O)NC(=O)[C@H](CO)NC(=O)[C@@H]1CCCN1C(=O)CN)[C@@H](C)O)C(C)C)C(=O)N[C@@H](CC(C)C)C(=O)N[C@@H](CC(C)C)C(=O)N[C@@H](CC(=O)O)C(=O)N[C@@H](CC(C)C)C(=O)N[C@@H](Cc1ccc(O)cc1)C(=O)N[C@@H](CC(C)C)C(=O)N[C@@H](CC(=O)O)C(=O)N[C@@H](C)C(=O)N1CCC[C@H]1C(=O)NCC(=O)N[C@H](C(=O)N[C@@H](CSCC(=O)Nc1ccc2c(c1)C(=O)OC21c2ccc(O)cc2Oc2cc(O)ccc21)C(N)=O)C(C)C [PPKID4]
Kd [1]: 3.1 ± 0.2 µM
Kd [2]: 51 µM and 52 µM
Kd [3]: 0.54 ± 0.05 µM
Kd [4]: 106 ± 12 µM
Kd [5]: 4.1 µM and 3.9 µM
Kd ([6]; fluorescein-labeled phosphopeptide, read-out: Kd HisKIX, phosphorylated peptide (P)): 0.515 ± 0.044 µM
Kd ([6]; fluorescein-labeled unphosphorylated peptide, read-out: Kd HisKIX, unphosphorylated peptide (U)): 12.1 ± 2.4 µM
Kd [7]: 0.61 ± 0.04 µM
Kd [8]: 2.9 ± 0.2 µM
Kd [9]: 1.1 ± 0.1 µM
Kd [10]: 3 ± 0.3 µM
Kd [11]: 1.1 ± 0.1 µM
Kd [12]: 3.9 ± 0.3 µM
Kd [13]: 3.4 ± 0.5 µM
Kd [14]: 4.1 ± 0.2 µM
Kd [15]: 2.7 ± 0.1 µM

CC[C@H](C)[C@H](NC(=O)[C@H](CC(C)C)NC(=O)[C@H](CC(=O)O)NC(=O)[C@H](CCC(=O)O)NC(=O)[C@@H](NC(=O)[C@@H]1CCCN1C(=O)[C@H](C)NC(=O)[C@H](CC(=O)O)NC(=O)[C@H](CC(=O)O)NC(=O)CNC(=O)[C@@H]1CCCN1C(=O)[C@H](Cc1ccc(O)cc1)NC(=O)[C@@H](NC(=O)[C@@H]1CCCN1C(=O)[C@H](CCC(N)=O)NC(=O)[C@H](CO)NC(=O)[C@@H]1CCCN1C(=O)CN)[C@@H](C)O)C(C)C)C(=O)N[C@@H](CCCNC(=N)N)C(=O)N[C@@H](Cc1ccccc1)C(=O)N[C@H](C(=O)NCC(=O)N[C@@H](CCCNC(=N)N)C(=O)N[C@@H](CC(C)C)C(=O)N[C@@H](CC(C)C)C(=O)N[C@@H](C)C(=O)N[C@@H](Cc1ccc(O)cc1)C(=O)N[C@@H](Cc1ccccc1)C(=O)NCC(=O)N[C@@H](CC(=O)O)C(=O)N[C@H](C(=O)N[C@H](C(=O)N[C@@H](CC(N)=O)C(=O)N[C@@H](CCCNC(=N)N)C(=O)N[C@@H](CCCNC(=N)N)C(N)=O)[C@@H](C)CC)[C@@H](C)O)C(C)C [p4099] (H-GPSQPTYPGDDAPVEDLIRFVGRLLAYFGDTINRR-NH2)
Kd [16]: 25 ± 4 µM
Kd [17]: 0.352 ± 0.033 µM
Tm, cooperative thermal melt [18]: approximately 65 °C
Kd [19]: 8.6 µM

CC[C@H](C)[C@H](NC(=O)[C@H](CC(C)C)NC(=O)[C@H](CC(=O)O)NC(=O)[C@H](CCC(=O)O)NC(=O)[C@@H](NC(=O)[C@@H]1CCCN1C(=O)[C@H](C)NC(=O)[C@H](CC(=O)O)NC(=O)[C@H](CC(=O)O)NC(=O)CNC(=O)[C@@H]1CCCN1C(=O)[C@H](Cc1ccc(O)cc1)NC(=O)[C@@H](NC(=O)[C@@H]1CCCN1C(=O)[C@H](CCC(N)=O)NC(=O)[C@H](CO)NC(=O)[C@@H]1CCCN1C(=O)CN)[C@@H](C)O)C(C)C)C(=O)N[C@@H](CCCNC(=N)N)C(=O)N[C@@H](Cc1ccccc1)C(=O)N[C@@H](CCCCN)C(=O)N[C@@H](Cc1ccccc1)C(=O)N[C@@H](CC(C)C)C(=O)N[C@@H](CC(C)C)C(=O)N[C@@H](CCC(N)=O)C(=O)N[C@@H](Cc1c[nH]c2ccccc12)C(=O)N[C@@H](Cc1ccc(O)cc1)C(=O)N[C@@H](CC(C)C)C(=O)N[C@@H](CC(C)C)C(=O)N[C@@H](C)C(=O)N[C@@H](CC(C)C)C(N)=O [pP53-05] (H-GPSQPTYPGDDAPVEDLIRFKFLLQWYLLAL-NH2; N-terminus and C-terminus assumed)
Kd [20]: 16 µM
Ki [21]: 0.722 µM
Kd [22]: > 275 µM
ΔΔG between stabilities of non-target protein complexes and pP53-05·GST-MDM2 [23]: 2.8-4.4 kcal·mol^−1
Kd [24]: 0.099 ± 0.011 µM
Tm, cooperative thermal melt [18]: 47 °C
Kd [25]: 298 µM
Kd [26]: 42 µM

KID(129-149)^P: phosphorylated CREB KID residues 129-149, literature (SDAPGVPRIEEEKSEEETSAP; also: phosphorylated, sites not given here; UniProt P16220 129-149, looked up, fragment)
Kd [27]: 80 µM
